Where “and” joins values, the source holds several entries; their conditions need not be identical. Equal entries are not always repeated. Entries after “also recorded” stand apart in the source; their conditions may differ. Where two headings read alike, the source gives them in different places.
Tests used:
[1] = test system: cultured hippocampal neurons; test: Kainate induced neuronal cell death in hippocampal cultures; format: cell-based, rat; conditions: 20 μM CNQX, 10 μM MK-801, 10 μM memantine or 10 μM NBTA
Protocol: FIG. 7. NBTA protects cultured hippocampal neurons from NMDA receptor-mediated excitotoxic cell death. Trypan blue exclusion assays of (A) control neurons and neurons exposed to 200 μM NMDA in the absence (B) or presence of 10 μM memantine (C); and in the presence of 10 μM NBTA (D). (E) Normalized cell death in the absence and presence of the lead. (F) Neuronal death induced by kainate in the absence or presence of 20 μM CNQX, 10 μM MK-801, 10 μM memantine or 10 μM NBTA. Data are mean±s.e., n=2000.
To evaluate the specificity of the neuroprotective effect of NBTA<its activity against kainate induced neuronal cell death was assessed.
(§1) Mixed hippocampal neuron/glia primary cultures were employed to assess the neuroprotective activities of the identified lead against NMDA receptor-mediated excitotoxic cell death. Primary culture of rat hippocampal neurons were prepared as previously described (Ferrer-Montiel A. V., et al., Nat. Biotechnol., 16(3):286–91, 1998; Schinder A. F., et al.; J. Neurosci., 16(19):6125–33, 1996). In brief, hippocampi from E17–E19 rat embryos were first taken out and incubated at 4° C. in a saline (BSS) containing (mM): 137 NaCl, 3.5 KCl, 0.4 KH2PO4, 0.33 Na2HPO4.7H2O, 5 TES, and 10 glucose, pH 7.4. Hippocampi were then incubated in 0.25% trypsin (1×) solution from Hyclone at 37° C. for 15 min. Tissues were then washed and resuspended in minimal essential medium (Earle's salt) supplemented with 10% heat-inactivated horse serum (Hyclone), 10% fetal bovine serum (Hyclone), 1 mM […], 22 mM glucose, 20U/ml penicillin and 20 ug/ml streptomycin. Digested hippocampi were eventually dissociated by pipetting through a Pasteur pipette. Cells were plated at a density of 5×10^4 cells/cm^2.

[2] = test system: cultured rat hippocampal neurons; test: Excitotoxic assay in hippocampal cultures, NMDA challenge, trypan blue exclusion; format: cell-based; conditions: 200 μM NMDA and 20 μM glycine for 20 min; for protection from NMDA receptor-mediated cell death: 10 μM, cell death by NMDA alone = 100%
Protocol: as §1
Neurons cultured 14–17 days were used for the excitotoxic assays. Cultured medium was first removed and rinsed with BSS supplemented with 1 mM CaCl2, and 20 μM glycine. Neurons were challenged with 200 μM NMDA in the absence and presence of […] for 20 min at room temperature. The insults were terminated by removing the BSS containing NMDA. To reduce the excitotoxic effect due to the residual NMDA, the culture medium was supplemented with 20 μM MK-801. Cell cultures were returned to the incubator (37° C., 5% CO2). Cell death was assessed 20–24 hours after the challenge with trypan blue (0.04%) exclusion assays. Fraction of dead cells in cultures treated with control buffer (8±3%, n=2000) was subtracted as background.
NMDA insult alone caused significant cell death of 45±6% (n=2000). Neuroprotective activities as described in the Detailed Description of the Invention were expressed as percentage of net cell death in the absence and presence of 10 μM of the known NMDA receptor blockers and the identified compound. Cell death elicited by NMDA alone was considered as 100%. The assays were repeated in 4 separated occasions with different culture preparations.

[3] = biological target: T1, NMDA receptors (NR1/NR2A) (Homo sapiens, UniProt Q05586+Q12879); conditions: literature values; cited from earlier work
[4] = biological target: NMDA receptor, NR1 mutant (N616Q) (Homo sapiens, UniProt Q05586+Q12879, N616Q); test: Block of NMDA receptor with NR1 mutant N616Q in oocytes; format: cell-based; conditions: versus wild type
NMDA receptor, N615G = NMDA receptor, N615G (Homo sapiens, UniProt Q05586+Q12879, N615G); test: Block of NMDA receptor with N615G mutation in oocytes; format: cell-based; conditions: versus wild type
Protocol: (§2) In contrast, mutations at N614G, N615G and S616G in the M2 segment had no effect on NBTA binding.
(§3) Oocytes of stage V and VI were surgically removed from the ovaries of […] anesthetized with 0.4% ethyl 3-amino-benzoate methanesulfonic acid-Clusters of oocytes were incubated with 2 mg/ml collagenase (Life Technologies, Gaithersburg, Md.) for 1 hour 20 min in Ca^2+-free solution comprised of (mM) 82.5 NaCl, 2.5 KCl, 1 MgCl2, 5 HEPES, pH 7.4 with vigorous agitation to remove the follicular cell layer. Oocytes were then washed extensively with the Ca^2+-free solution to remove the collagenase. Oocytes were eventually incubated in Barth's solution consisted of (in mM): 96 NaCl, 2 mM KCl, 1.8 CaCl2, 1 MgCl2, 5 HEPES supplemented with 100U/ml penicillin and 100 ug/ml streptomycin, pH 7.4 at 17° C. Oocytes were injected with 5–15 ng of cRNA encoding NR1 or its mutant premixed with three-fold amount of cRNA encoding NR2A.
(§4) On days two to six following injection of cRNAs, whole oocyte currents were recorded with standard two-electrode voltage-clamp. […] The blocking activities of the library were assessed at 10 μM (assuming the molecular weight is ˜500). […] Blocking activity of the mixture is expressed as fraction of response blocked by the mixture. […]

NMDA receptor, S616G = NMDA receptor, S616G (Homo sapiens, UniProt Q05586+Q12879, S616G); test: Block of NMDA receptor with S616G mutation in oocytes; format: cell-based; conditions: versus wild type
Protocol: as §2, §3, §4

[5] = biological target: NMDA receptor, NR2A tryptophan 606 to leucine (Homo sapiens, UniProt Q05586+Q12879, W606L); test: Block of NMDA receptor with NR2A tryptophan 606 to leucine substitution in oocytes; format: cell-based; conditions: versus wild type
Protocol: as §2, §3, §4

[6] = biological target: NMDA receptor, N616Q (NR1 mutant) with N614G (NR2 mutant) (Homo sapiens, UniProt Q05586+Q12879, N614G/N616Q); test: Block of NMDA receptor with coexpressed N616Q (NR1 mutant) and N614G (NR2 mutant) in oocytes; format: cell-based; conditions: versus N616Q alone
Protocol: as §2, §3, §4

[7] = biological target: NMDA receptor, N614G (NR2 mutant) (Homo sapiens, UniProt Q05586+Q12879, N614G); test: Block of NMDA receptor with N614G mutation in oocytes; format: cell-based; conditions: versus wild type
Protocol: as §2, §3, §4

NMDA receptor, NR1 N616R = NMDA receptor, NR1 N616R (Homo sapiens, UniProt Q05586+Q12879, N616R); test: Block of NMDA receptor with NR1 N-site mutant N616R in oocytes; format: cell-based; conditions: versus wild type
[8] = biological target: T2, non-NMDA glutamate receptor GluR1 (Homo sapiens, UniProt P42261); test: Two-electrode voltage-clamp block of GluR1 expressed in Xenopus oocytes; format: cell-based
T2 construct: expressed in transfected cells
Description: Recombinant NMDA receptor subunits, NR1 (Planells-Cases R, et al., Proc. Natl. Acad. Sci. USA, 90(11):5057–61, 1993) and NR2A (Le Bourdelles B, et al., J. Neurochem., 62(6):2091–8, 1994) was used for screening the dipeptidomimetic combinatorial library. cDNAs of NR1 and NR2A were linearized with NOT1. cRNAs encoding NR1 and NR2A were synthesized from the linearized cDNAs templates according to manufacturer specifications (Ambion). NR1 mutant (N616Q) was used to examine the site of action of the identified lead. The NR1A mutants were linearized with NOT1 and use of T7 for sense. cDNA of human glutamate receptor/GluR1 (Sun W., et al., Proc. Natl. Acad. Sci. USA, 89:1443–1447, 1992) was linearized with Hind III and the use of T3 promoter for the synthesis of its […]. cDNAs were quantified by spectroscopy and the quality were assessed by gel electrophoresis. […]
as §4

[9] = biological target: T1, NMDA receptors (NR1/NR2A); test: Two-electrode voltage-clamp block of recombinant NMDA receptors expressed in Xenopus oocytes; format: cell-based
Protocol: Oocytes of stage V and VI were surgically removed from the ovaries of Xenopus oocytes anesthetized with 0.4% ethyl 3-amino-benzoate methanesulfonic acid-Clusters of oocytes were incubated with 2 mg/ml collagenase (Life Technologies, Gaithersburg, Md.) for 1 hour 20 min in Ca^2+-free solution comprised of (mM) 82.5 NaCl, 2.5 KCl, 1 MgCl2, 5 HEPES, pH 7.4 with vigorous agitation to remove the follicular cell layer. Oocytes were then washed extensively with the Ca^2+-free solution to remove the collagenase. Oocytes were eventually incubated in Barth's solution consisted of (in mM): 96 NaCl, 2 mM KCl, 1.8 CaCl2, 1 MgCl2, 5 HEPES supplemented with 100U/ml penicillin and 100 ug/ml streptomycin, pH 7.4 at 17° C. Oocytes were injected with 5–15 ng of cRNA encoding NR1 or its mutant premixed with three-fold amount of cRNA encoding NR2A.
On days two to six following injection of cRNAs, whole oocyte currents were recorded with standard two-electrode voltage-clamp. All electrophysiological studies, unless otherwise stated, were performed in Ba^2+/flufenamic-Ringer's solution (in mM: 10 HEPES pH7.5, 115 NaCl, 2.8 KCl, 2.0 BaCl2, 0.1 flufenamic, 0.1 niflumic acid) at ambient temperature as previously described (Ostresh J. M., et al., J. Org. Chem., 63:8622–8623, 1998; Nefzi A., et al., Tetrahedron, 55:335–344, 1999). Both current and voltage electrodes were filled with 3M KCl and have a tested resistance of 0.5–1 MOhm. The blocking activities of the library were assessed at 10 μM (assuming the molecular weight is ˜500). […] Inward currents were elicited from a holding potential of −80 mV except where indicated. […] Blocking activity of the mixture is expressed as fraction of response blocked by the mixture. Dose-response curves were fitted to the Hill equation:
[formula] where y is the ratio of current in the presence and presence of blocker, [x] is the blocker concentration, and IC50 and nH represent the concentration blocks 50% of response and Hill coefficient, respectively. Current-voltage relationships were measured first in the absence and then in the presence of a given concentration of lead at a specified membrane holding potential, and the ratio of these currents was plotted as a function of the holding potential. Analysis of the voltage dependent block current was performed according to the model proposed by Woodhull (Woodhull A. M., J. Gen. Physiol., 61:687–708, 1973). Data were fitted with the equation according to Zarei and Dani (Zarei M. M. and Dani J. A., J. Gen. Physiol., 1103(2):231–48, 1994):
[formula] where Ib and Ic are currents recorded during the blockade and control, respectively; [B] is the concentration of the blocker; Kd is the dissociation constant of the blocker at 0 mV; δ is the fraction of the membrane field sensed by the blocker as it binds to its site; V is the command voltage; R is the gas constant; T is the absolute temperature; F is the Faraday's number; z is the valence of the blocker.

T2 sequence (P42261 19-906): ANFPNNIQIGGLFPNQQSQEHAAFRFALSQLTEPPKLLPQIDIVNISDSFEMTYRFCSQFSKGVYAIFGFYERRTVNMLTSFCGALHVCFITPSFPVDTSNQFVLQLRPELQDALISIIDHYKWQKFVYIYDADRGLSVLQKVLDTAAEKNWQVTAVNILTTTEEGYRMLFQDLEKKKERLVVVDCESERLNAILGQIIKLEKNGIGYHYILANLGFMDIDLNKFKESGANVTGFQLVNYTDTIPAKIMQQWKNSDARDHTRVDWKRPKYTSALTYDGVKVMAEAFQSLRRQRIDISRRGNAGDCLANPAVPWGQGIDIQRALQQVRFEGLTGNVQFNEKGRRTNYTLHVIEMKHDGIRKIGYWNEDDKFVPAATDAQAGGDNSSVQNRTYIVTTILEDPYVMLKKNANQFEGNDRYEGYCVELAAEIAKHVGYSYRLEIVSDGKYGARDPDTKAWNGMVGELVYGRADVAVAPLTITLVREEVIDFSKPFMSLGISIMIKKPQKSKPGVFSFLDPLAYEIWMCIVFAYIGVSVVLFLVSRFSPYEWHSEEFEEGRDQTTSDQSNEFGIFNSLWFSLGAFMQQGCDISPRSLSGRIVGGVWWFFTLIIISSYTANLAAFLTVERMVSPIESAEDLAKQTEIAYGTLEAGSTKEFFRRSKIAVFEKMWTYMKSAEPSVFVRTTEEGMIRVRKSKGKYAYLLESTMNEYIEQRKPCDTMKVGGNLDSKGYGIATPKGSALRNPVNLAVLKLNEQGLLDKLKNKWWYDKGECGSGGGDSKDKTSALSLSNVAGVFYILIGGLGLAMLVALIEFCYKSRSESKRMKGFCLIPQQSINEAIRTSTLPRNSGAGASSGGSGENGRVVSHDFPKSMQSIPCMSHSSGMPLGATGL
T1 sequence (Q12879 23-1464, other chains not shown): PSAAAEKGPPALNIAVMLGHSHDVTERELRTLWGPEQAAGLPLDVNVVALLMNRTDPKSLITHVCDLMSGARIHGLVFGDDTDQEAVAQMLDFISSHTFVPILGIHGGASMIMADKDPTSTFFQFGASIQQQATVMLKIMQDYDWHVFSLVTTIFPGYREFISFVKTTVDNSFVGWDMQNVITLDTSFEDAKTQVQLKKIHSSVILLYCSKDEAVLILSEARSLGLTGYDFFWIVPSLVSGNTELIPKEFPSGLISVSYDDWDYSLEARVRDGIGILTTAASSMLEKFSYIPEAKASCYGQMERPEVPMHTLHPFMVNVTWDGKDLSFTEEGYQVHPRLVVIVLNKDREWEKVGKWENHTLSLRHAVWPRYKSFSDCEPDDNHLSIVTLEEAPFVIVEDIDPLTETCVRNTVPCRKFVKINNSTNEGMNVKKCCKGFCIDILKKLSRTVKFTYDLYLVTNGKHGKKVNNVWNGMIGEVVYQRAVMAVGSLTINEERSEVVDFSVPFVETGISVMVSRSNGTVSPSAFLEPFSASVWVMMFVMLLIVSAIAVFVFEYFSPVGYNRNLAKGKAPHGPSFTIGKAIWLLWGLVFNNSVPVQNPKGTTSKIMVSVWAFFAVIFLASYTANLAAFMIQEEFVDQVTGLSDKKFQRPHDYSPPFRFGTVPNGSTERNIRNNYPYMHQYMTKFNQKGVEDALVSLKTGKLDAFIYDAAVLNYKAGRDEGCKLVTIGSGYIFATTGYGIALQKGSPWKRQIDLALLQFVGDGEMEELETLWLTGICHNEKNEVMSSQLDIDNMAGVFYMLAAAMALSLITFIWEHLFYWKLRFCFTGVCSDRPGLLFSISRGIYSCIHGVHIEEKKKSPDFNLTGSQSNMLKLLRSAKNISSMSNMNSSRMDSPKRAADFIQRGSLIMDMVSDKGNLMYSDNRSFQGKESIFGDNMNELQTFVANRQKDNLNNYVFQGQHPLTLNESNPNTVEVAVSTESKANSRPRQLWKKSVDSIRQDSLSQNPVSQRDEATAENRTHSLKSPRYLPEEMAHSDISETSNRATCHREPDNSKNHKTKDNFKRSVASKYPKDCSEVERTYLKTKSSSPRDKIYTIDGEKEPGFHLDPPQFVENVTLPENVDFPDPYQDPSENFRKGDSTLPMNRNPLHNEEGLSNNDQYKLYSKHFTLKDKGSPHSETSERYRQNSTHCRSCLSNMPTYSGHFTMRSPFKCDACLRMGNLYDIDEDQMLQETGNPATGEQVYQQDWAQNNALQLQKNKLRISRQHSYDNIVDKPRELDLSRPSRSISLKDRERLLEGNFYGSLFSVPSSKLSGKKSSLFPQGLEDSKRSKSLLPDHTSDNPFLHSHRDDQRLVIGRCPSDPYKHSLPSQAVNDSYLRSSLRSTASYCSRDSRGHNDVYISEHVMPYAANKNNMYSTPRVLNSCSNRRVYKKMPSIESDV
Sequence of NMDA receptor, NR2A tryptophan 606 to leucine (Q12879 23-1464 W606L, other chains not shown): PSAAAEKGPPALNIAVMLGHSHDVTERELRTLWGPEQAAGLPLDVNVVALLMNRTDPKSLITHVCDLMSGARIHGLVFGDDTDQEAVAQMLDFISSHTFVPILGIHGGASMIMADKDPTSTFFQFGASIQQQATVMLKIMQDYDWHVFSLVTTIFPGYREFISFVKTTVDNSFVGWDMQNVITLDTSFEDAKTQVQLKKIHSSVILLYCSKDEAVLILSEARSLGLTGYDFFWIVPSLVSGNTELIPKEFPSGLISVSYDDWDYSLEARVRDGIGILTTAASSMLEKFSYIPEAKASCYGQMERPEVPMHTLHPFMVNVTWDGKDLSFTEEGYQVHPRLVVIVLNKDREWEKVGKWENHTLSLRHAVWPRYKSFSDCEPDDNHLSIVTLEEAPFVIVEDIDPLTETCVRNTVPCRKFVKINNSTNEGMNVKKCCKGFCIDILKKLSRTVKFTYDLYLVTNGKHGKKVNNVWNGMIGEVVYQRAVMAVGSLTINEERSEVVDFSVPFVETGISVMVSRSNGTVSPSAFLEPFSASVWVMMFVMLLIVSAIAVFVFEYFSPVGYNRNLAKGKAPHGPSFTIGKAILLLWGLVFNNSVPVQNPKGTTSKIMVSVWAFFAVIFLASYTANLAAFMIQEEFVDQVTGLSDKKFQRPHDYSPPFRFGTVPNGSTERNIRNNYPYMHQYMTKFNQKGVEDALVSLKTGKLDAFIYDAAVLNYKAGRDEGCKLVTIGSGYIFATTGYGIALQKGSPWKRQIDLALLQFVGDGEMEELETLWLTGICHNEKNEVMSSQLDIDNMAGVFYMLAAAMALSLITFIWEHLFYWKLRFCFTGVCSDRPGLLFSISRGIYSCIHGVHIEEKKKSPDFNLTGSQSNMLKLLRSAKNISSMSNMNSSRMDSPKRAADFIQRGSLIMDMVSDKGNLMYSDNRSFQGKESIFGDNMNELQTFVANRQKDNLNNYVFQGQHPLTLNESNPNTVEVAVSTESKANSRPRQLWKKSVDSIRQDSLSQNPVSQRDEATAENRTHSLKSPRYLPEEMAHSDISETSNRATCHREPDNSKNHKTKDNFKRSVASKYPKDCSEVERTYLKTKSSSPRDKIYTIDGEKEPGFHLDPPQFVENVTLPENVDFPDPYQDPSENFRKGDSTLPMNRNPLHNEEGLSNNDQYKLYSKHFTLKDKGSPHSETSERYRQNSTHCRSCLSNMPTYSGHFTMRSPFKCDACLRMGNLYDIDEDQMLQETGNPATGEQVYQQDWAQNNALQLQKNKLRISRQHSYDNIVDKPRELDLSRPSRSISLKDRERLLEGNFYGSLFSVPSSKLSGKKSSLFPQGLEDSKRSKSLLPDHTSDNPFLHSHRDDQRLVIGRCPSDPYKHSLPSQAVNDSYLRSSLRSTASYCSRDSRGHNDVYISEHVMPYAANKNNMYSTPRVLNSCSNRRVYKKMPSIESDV

N#Cc1cc2c(cc1[N+](=O)[O-])=NC(=O)C(=O)N=2 [CNQX, 6-cyano-7 nitroquinoxaline-2,3-dione]
effect on neuronal cell death induced by kainate [1]: protects neurons

C[C@]12N[C@H](Cc3ccccc31)c1ccccc12 [MK-801]
protection from NMDA receptor-mediated cell death [2]: 89±1%
effect on neuronal cell death induced by kainate [1]: protect neurons as well, though not as effectively as CNQX

[Mg+2] [Mg^2+]
δ, fraction of the membrane field sensed by the blocker [3]: ~0.77

CCC(C)C(N)CN(Cc1ccccc1)C(CNCc1ccccc1)Cc1ccc(O)cc1 (stereo not shown) [NBTA]
change of blocking activity by replacement of N616 for glutamine [4]: only slightly reduces
protection from NMDA receptor-mediated cell death [2]: 83±2%
effect of N615G mutation on binding (NMDA receptor, N615G): no effect
effect of S616G mutation on binding (NMDA receptor, S616G): no effect
reduction of blocking activity by tryptophan to leucine substitution in NR2A [5]: 4.7 fold
effect on neuronal cell death induced by kainate [1]: no effect
binding with coexpressed N616Q and N614G compared with N616Q alone [6]: similar
effect of N614G mutation on binding [7]: no effect
reduction of blocking activity by N616R substitution (NMDA receptor, NR1 N616R): 275 fold
block of GluR1 ([8]; 1 μM): not
effect on GluR1 / AMPA receptors ([8]; even at 1 mM / mM concentration range): no effect at all
use dependence of NMDA receptor block ([9]; 0.1 μM, repetitive pulses of glutamate (200 μM) and glycine (20 μM), -80 mV): progressive block; also recorded: progressive blockade
block of NMDA current ([9]; 1 μM compound, -80 mV): 70±3% and ~95%
IC50 ([9]; Hill equation fit, n=6, read-out: IC50, wild-type NMDA receptors (NR1/NR2A)): 80 nM
δ, fraction of the membrane field sensed by the blocker ([9]; Woodhull model of voltage-dependent block): 0.56
fraction of transmembrane electric field traversed to reach binding site ([9]; from δ): ~56%
voltage dependence of NMDA current reduction ([9]; voltage-ramp protocol, 200 μM L-glutamic acid plus 20 μM glycine): voltage-dependent

CN[C@H](CC(=O)O)C(=O)O [NMDA, N-methyl-D aspartate]
cell death induced by NMDA ([2]; no blocker): 50±3% and 45±6%

CC12CC3CC(C)(C1)CC(N)(C3)C2 [memantine, 1-amino-3,5-dimethyladamantane]
δ, fraction of the membrane field sensed by the blocker [3]: ~0.77
protection from NMDA receptor-mediated cell death [2]: 93±1%
effect on neuronal cell death induced by kainate [1]: protect neurons as well, though not as effectively as CNQX
